Results from PubChem BioAssay AID776 (The Scripps Research Institute Molecular Screening Center, 2007).
Calls of active or inactive are those of the source.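 How the source made its calls: active means compounds whose IC50 for cutting the S1P-driven reporter signal is at most 40 micromolar; inactive means IC50 above 40 micromolar.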

The molecules below were run against CHO S1P3/Ga15 NFAT-beta-lactamase reporter, FRET (assay: S1P3 receptor NFAT-BLA reporter inhibition, dose response, counter-screen for 5HT1E antagonist project, CHO cells, Ga15, NFAT beta-lactamase, FRET (AID 776)).

Row | IC50 | SMILES
1 | > 50 µM (inactive) | COc1ccc(N2C(=O)CC(NCc3ccncc3)C2=O)cc1 (stereo not given)
2 | 7.56 µM | CC(=O)Oc1ccc(N2C(=O)C3C(C2=O)C2(C)C=CC3(C)O2)cc1 (stereo not given)

Second part, the molecule before the results:

Row | SMILES | IC50
3 | CSc1ccccc1N=CC1=C(O)CC(C)(C)CC1=O | 4.33 µM
4 | O=C1C2C3C=CC(CO)(O3)C2C(=O)N1c1ccc(-c2ccccc2)cc1 (stereo not given) | > 12.4 µM (inactive)
5 | COc1cc2c(cc1OC)C1=C(C#N)CC/C(=N\S(=O)(=O)c3ccccc3)N1CC2 | > 50 µM (inactive)
